Values quoted from earlier work as cited in US5578629A, “Benzamide-containing inhibitors of farnesyl-protein transferase” (Merck & Co., Inc., priority 1995, dated 1996).

System: farnesyl-protein transferase
Settings: via inhibition of HMG-CoA reductase

Row | SMILES | Indirect inhibition of farnesyl-protein transferase in vivo
1 | CC[C@H](C)C(=O)O[C@H]1C[C@@H](C)C=C2C=C[C@H](C)[C@H](CC[C@@H]3C[C@@H](O)CC(=O)O3)[C@H]21 [lovastatin] | Indirect inhibition of farnesyl-protein transferase in vivo has been demonstrated
2 | CC[C@H](C)C(=O)O[C@H]1CCC=C2C=C[C@H](C)[C@H](CC[C@@H]3C[C@@H](O)CC(=O)O3)[C@H]21 [compactin] | Indirect inhibition of farnesyl-protein transferase in vivo has been demonstrated
